Measurements from patent US11160798B2, “Neuroprotective CB2 receptor agonists” (THE CLEVELAND CLINIC FOUNDATION, priority 2012, dated 2021).

How the values were obtained:
[1] = biological target: CB2 receptor (Homo sapiens, UniProt P34972); conditions: cited from earlier work
[2] = test system: cognitive impairment induced by Aβ1-40; assay: Morris water maze test in rats microinjected with Aβ1-40 fibrils; assay type: in vivo, rat; conditions: Aβ1-40-injected rats
Description: Animals and treatment protocol. All animal procedures were approved by the Animal Care and Use Committee of Cleveland Clinic. Animals were housed the Institutional Biological Rodent Unit on a 12/12 h light/dark cycle with water and food pellets available ad libitum. Adult male Sprague-Dawley (Charles River, Wilmington, Mass.) rats weighing 200-250 g were used, and all experiments were performed during the light cycle.
(§1) Animals were divided into several groups ([…]). The Aβ1-40 group received bilateral intracerebral microinjection of Aβ1-40 fibrils once and saline intraperitoneally (i.p.) daily for 14 days. The Aβ1-40+MDA7 group received bilateral intracerebral microinjection of Aβ1-40 fibrils once and 15 mg/kg MDA7 i.p. daily for 14 days. Other cohorts received smaller doses of MDA7 (5 mg/kg or 1.5 mg/kg) i.p. daily for 14 days to determine the dose-response characteristics for MDA7. In other groups, AM630 (a CB2 antagonist) 5 mg/kg i.p. was administered daily for 14 days either alone (Aβ1-40+AM630 group) or 15 min prior to MDA7 (15 mg/kg i.p.) administration (Aβ1-40+MDA7+AM630 group) to rats injected with β1-40 fibrils. MDA7 group and control group received bilateral intracerebral microinjection of artificial cerebrospinal fluid (130 mM NaCl, 2.6 mM KCl. 4.3 mM MgCl2 and 1.8 mM CaCl2) once and 15 mg/kg MDA7 or saline i.p. daily for 14 days, respectively. Intraperitoneal administration of AM630, MDA7 or saline started on the same day after intracerebral microinjection of Aβ1-40. All drugs were prepared coded. Decoding was performed at the end of all experiments.
Microinjection of amyloid fibrils into the hippocampal CA1 area. Rats were anesthetized with sodium pentobarbital (45 mg/kg i.p.) and restrained in a stereotaxic apparatus. Aβ1-40 fibrils were formed as described previously. Chacon, et al., Mol Psychiatry 9(10), 953-61 (2004), Aβ1-40 fibrils (10 μg/3 μl) or 3 μl of artificial cerebrospinal fluid were injected stereotaxically and bilaterally into each hippocampus (coordinates; Bregma −3.5 mm anteroposterior, ±2.0 mm mediolateral, and −3.0 mm dorsoventral) using a 10 μl Hamilton syringe with a 27 G stainless steel needle at a rate of 0.5 μl/min. This experimental model has been used for studying AD. Ahmed, et al., Neuroscience 169(3), 1296-306 (2010).
Morris water maze test. A cohort of rats (n=10 per group) was tested 15 days after surgery as described by Chacon et al. (ibid). Testing was conducted in all groups at the same time of the day. The experimental apparatus consisted of a circular pool (120 cm in diameter, 45 cm high). An invisible platform (15 cm in diameter, 35 cm high) was placed 1.5 cm below the surface of the water. The water temperature was kept at 24-28° C. The pool was located in a test room, and many clues external to the maze were visible from the pool, which could be used by the rats for spatial orientation. The position of the cues was kept constant throughout the task. Each rat underwent four trials per day for five days. During each trial (memory acquisition), the rats were placed randomly at one of four fixed starting points and were allowed to swim for 120 s or until they escaped from the water by reaching the platform. The platform was located in the same position throughout the test in the middle of one quadrant. The start location was moved to a different quadrant in each trial so that no single start location was used in consecutive trials. In each training session, the latency to escape to the hidden platform was recorded. After the rats reached the platform, they were allowed to rest there for 20 seconds, and they then were removed from the pool. An inter-trial interval of at least 4 minutes was used to ensure that each rat's performance was not impaired by fatigue. After completing four trials, the rats were removed from the pool, dried and returned to their home cage. […]

[3] = test system: Aβ1-40; assay: Clearance of Aβ1-40 injected in the hippocampal CA1 area (immunofluorescence); assay type: in vivo, rat
Description: as §1
Microinjection of amyloid fibrils into the hippocampal CA1 area. Rats were anesthetized with sodium pentobarbital (45 mg/kg i.p.) and restrained in a stereotaxic apparatus. Aβ1-40 fibrils were formed as described previously. […]
Immunostaining. […] Three to six sections from each rat were randomly selected and were analyzed using Leica DMLB fluorescence microscope (Leica Microsystems Wetzlar GmbH, Germany) by one investigator, who was blinded to the origin of tissue being examined. Images were quantified using MCID Core software version 7.0 (InterFocus Imaging Ltd, Cambridge, England).

CB2 receptor, sequence (P34972 whole entry): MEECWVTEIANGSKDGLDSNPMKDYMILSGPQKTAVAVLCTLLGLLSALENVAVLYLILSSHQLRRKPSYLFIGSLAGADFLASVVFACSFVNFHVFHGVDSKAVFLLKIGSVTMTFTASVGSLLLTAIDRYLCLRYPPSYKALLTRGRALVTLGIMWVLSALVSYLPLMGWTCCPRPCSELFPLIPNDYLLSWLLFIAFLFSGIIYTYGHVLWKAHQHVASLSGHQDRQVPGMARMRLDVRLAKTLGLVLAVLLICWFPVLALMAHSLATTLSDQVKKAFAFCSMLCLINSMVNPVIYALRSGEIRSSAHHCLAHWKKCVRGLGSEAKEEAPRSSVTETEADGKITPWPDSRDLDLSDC

SMILES	activity compared with the other enantiomer [1]	effect on escape latency of AM630 given prior to MDA7 ([2]; AM630 5 mg/kg i.p. 15 min prior to MDA7 15 mg/kg i.p., daily for 14 days)	spatial memory or probe test, AM630 alone ([2]; AM630 5 mg/kg i.p. daily for 14 days alone, vs Aβ1-40 group)	effect of prior AM630 on MDA7-induced removal of Aβ1-40 ([3]; AM630 5 mg/kg i.p. for 14 days prior to MDA7 15 mg/kg)	clearance of injected Aβ1-40, AM630 alone ([3]; Aβ1-40-injected rats, AM630 5 mg/kg i.p. alone)
CC1(Cc2ccccc2)COc2cc(C(=O)N3CCCCC3)ccc21 (stereo in doubt) [S enantiomer, (S)-(3-benzyl-3-methyl-2,3-dihydro-benzofuran-6-yl)-piperidin-1-yl-methanone]	higher activity				
COc1ccc(C(=O)c2c(C)n(CCN3CCOCC3)c3cc(I)ccc23)cc1 [AM630, reference compound]		reversed the effect of MDA7	did not show any improvement	abrogated	no effect
